Experimental data: patent US4985547A, “External skin care preparation” (Kao Corporation, priority 1987, dated 1991)

How the values were obtained:
horny layer = test: Skin conductance (water content of horny layer) after two-week coating on cheeks; assay type: in vivo, women; set-up: key: conductance meter reading; ≤5 = severe roughness, ≥20 = no roughness; conditions: Invention Product 1: vaseline and compound 3:1 by weight; two weeks; 20° C., 40% humidity; 5 and smaller = severe roughness, 20 or greater = no substantial roughness
From the text: (§1) Compounds Ia1 -Ia18 prepared respectively in Referential Examples 1, 2 and 3 and following the procedures of these referential examples, compounds Ib1 -Ib5 prepared respectively in Referential Example 4 and following the procedure of the referential example, compounds Id1 -Id5 prepared respectively in Referential Example 5 and following the procedure of the referential example, compounds Ie1 -Ie4 prepared respectively in Referential Examples 6-9, and conventional compounds Ic1 -Ic13, Ie5 -Ie14 and II1 -II12 were used separately. Mixtures (Invention Products 1), each of which had been formulated by mixing vaseline and the compound (I or II) at a weight ratio of 3:1, and vaseline (Comparative Product 1) were evaluated in skin conductance and skin roughness by the following methods.
(§2) Chosen as volunteers in winter were 10 women of 20-50 years of old who had skin roughness on their both cheeks. Different external skin care preparations were coated separately on the left and right cheeks of each volunteer for two weeks. On the following day of the completion of the two-week coating test, tests were conducted with respect to the following properties.
After washing the face with warm water of 37° C., each volunteer was allowed to rest for 20 minutes in a room which was air-conditioned at 20° C. and 40% humidity. The water content of their horny layer was measured by a skin conductance meter (manufactured by IBS Company). A smaller conductance value indicates greater skin roughness. Conductance values of 5 and smaller indicate severe skin roughness. On the contrary, no substantial skin roughness is observed where this value is 20 or greater.

skin roughness = test: Score of skin roughness, visual ranking after two-week coating on cheeks; assay type: in vivo, women; conditions: average, 4 = severe
From the text: as §1, §2
Skin roughness was observed visually and ranked in accordance with the following standard. Each score was indicated by an average value.
Score Ranking of skin roughness
0 No skin roughness was observed.
1 Slight skin roughness was observed.
2 Skin roughness was observed.
3 Rather severe skin roughness was observed.
4 Severe skin roughness was observed.
Using separately the compounds used in Example 1, external skin care preparations (emulsified cosmetic preparations) of their corresponding compositions shown below in Table 2 were formulated. Their effects for the improvement of skin roughness were evaluated in the same manner as in Example 1.

[1] = Invention product 2: emulsified cosmetic, compound 1.0 wt. %, glyceryl ether 2.0 wt. %, 0 = none
[2] = Invention product 3: emulsified cosmetic, compound 1.0 wt. %, arginine monocetylphosphate 2.0 wt. %, 0 = none
[3] = Invention product 4: emulsified cosmetic, compound 1.0 wt. %, polyoxyethylene (20) sorbitan stearate 1.0 and sorbitan monostearate 1.0 wt. %, 0 = none

| SMILES | Skin conductance (horny layer) | Score of skin roughness (skin roughness; [1]) | Score of skin roughness (skin roughness; [2]) | Score of skin roughness (skin roughness; [3]) | Score of skin roughness (skin roughness; Invention Product 1: vaseline and compound 3:1 by weight, two weeks, 0 = no roughness) |
| --- | --- | --- | --- | --- | --- |
| CCCCCCCCCCCCCCCCOCC(O)CN(C(=O)CCCCCCCCCCCCCCC)C(C)C(=O)O (centres unmarked) [Compound Ic5] | 13 | 0.8 | 1.0 | 1.3 | – |
| CCCCCCCCCCCCCCCCOCC(O)CN(C(=O)CCCCCCCCCCCCCCC)C(CCC(=O)O)C(=O)O (centres unmarked) [Compound Ic11] | 13 | 0.8 | 1.0 | 1.3 | – |
| CCCCCCCCCCOCC(O)CN(CCCO)C(=O)CCCCCCCCC (centres unmarked) [Compound Ia3] | 10 | 0.7 | 1.0 | 1.3 | – |
| CCCCCCCCCCCCCCCCCC(=O)N(CCOCCO)CC(O)COCCCCCCCCCC (centres unmarked) [Compound Ib4] | 17 | 0.4 | 0.6 | 0.9 | – |
| CCCCCCCCCCCCCCCCOCC(O)CN(C(=O)CCCCCCCCCCCCCCC)C(Cc1c[nH]cn1)C(=O)O (centres unmarked) [Compound Ic12] | 11 | 1.0 | 1.3 | 1.6 | – |
| CCCCCCCCCCCCCCCCOCC(O)CN(C(=O)CCCCCCCCCCCCCCC)C(CC(=O)O)C(=O)O (centres unmarked) [Compound Ic10] | 15 | 0.6 | 0.8 | 1.1 | – |
| CCCCCCCCCCCCCCCCOCC(O)CN(C(=O)CCCCCCCCCCCCCCC)C(Cc1c[nH]c2ccccc12)C(=O)O (centres unmarked) [Compound Ic13] | 10 | 1.1 | 1.4 | 1.7 | – |
| CCCCCCCCCCCCCCCCCCOCC(O)CN(CC(O)COCCCCCCCCCCCCCCCCCC)C(C)=O (centres unmarked) [Compound II12] | 20 | 0.2 | 0.4 | 0.8 | – |
| CCCCCCCCCCCCCCCCC(O)CN(CCO)C(=O)CCCCCCCCC (centres unmarked) [Compound Id2] | 18 | 0.3 | 0.5 | 0.8 | – |
| CCCCCCCCCCCCCCCCCC(=O)N(CCO)CC(O)CCCCCCCCCC (centres unmarked) [Compound Id4] | 17 | 0.3 | 0.5 | 0.8 | – |
| CCCCCCCCCCOCC(O)CN(CC(=O)O)CC(O)COCCCCCCCCCC (centres unmarked) [Compound II6] | 7 | 0.8 | 1.0 | 1.2 | – |
| CCCCCCCCCCCCCCCCCC(=O)N(CCOP(=O)([O-])OCC[N+](CC)(CC)CC)CC(O)COCCCCCCCCCCCCCC (centres unmarked) [Compound Ie9] | 18 | 0.6 | 0.6 | 1.0 | – |
| CCCCCCCCCCCCCCCCOCC(O)CN(C(=O)CCCCCCCCCCCCCCC)C(CCSC)C(=O)O (centres unmarked) [Compound Ic9] | 16 | 0.5 | 0.7 | 1.0 | – |
| CCCCCCCCCCCCCCCCOCC(O)CN(CCO[C@@H]1O[C@H](CO)[C@@H](O[C@@H]2O[C@H](CO)[C@H](O)[C@H](O)[C@H]2O)[C@H](O)[C@H]1O)C(=O)CCCCCCCCCCCCCCC (stereo partly drawn) [Compound Ie2, N-(3-hexadecyloxy-2-hydroxypropyl)-N-[2-O-(4-β-D-galactopyranosyl-β-D-glucopyranosyl)ethyl]hexadecanamide] | 29 | 0.4 | 0.5 | 0.8 | – |
| CCCCCCCCCCCCCCCCCC(=O)N(CC(=O)O)CC(O)CCCCCCCCCCCCCCCC (centres unmarked) [Compound Ic4] | 13 | 0.8 | 1.0 | 1.3 | – |
| CCCCCCCCCCOCC(O)CN(CC(O)COCCCCCCCCCC)C(C)=O (centres unmarked) [Compound II10] | 9 | 0.8 | 1.1 | 1.2 | – |
| CCCCCCCCCCCCCCCCOCC(O)CN(C(=O)CCCCCCCCCCCCCCC)C(Cc1ccccc1)C(=O)O (centres unmarked) [Compound Ic6] | 12 | 0.9 | 1.2 | 1.5 | – |
| CCCCCCCCCCCCCCCCCCOCC(O)CN(CC(=O)O)CC(O)COCCCCCCCCCCCCCCCCCC (centres unmarked) [Compound II8] | 20 | 0.2 | 0.4 | 0.8 | – |
| CCCCCCCCCCCCCCCCCC(=O)N(CC(O)CO)CC(O)COCCCCCCCCCC (centres unmarked) [Compound Ia11] | 19 | 0.3 | 0.5 | 0.8 | – |
| CCCCCCCCCCCCCCCCOCC(O)CN(CCOP(=O)(O)OCCNC)C(=O)CCCCCCCCCCCCCCC (centres unmarked) [Compound Ie6] | 16 | 0.8 | 0.9 | 1.4 | – |
| CCCCCCCCCCCCCCCCOCC(O)CN(CC(=O)O)CC(O)COCCCCCCCCCCCCCCCC (centres unmarked) [Compound II9] | 17 | 0.1 | 0.3 | 0.9 | – |
| CCCCCCCCCCCCCCCCOCC(O)CN(CCO[C@]1(C(=O)O)C[C@H](O)[C@@H](NC(C)=O)[C@H]([C@H](O)[C@H](O)CO)O1)C(=O)CCCCCCCCCCCCCCC (stereo partly drawn) [Compound Ie4, N-(3-hexadecyloxy-2-hydroxypropyl)-N-[2-O-(5-acetamido-3,5-dideoxy-α-D-glycero-β-D-galacto-2-nonuropyranosyl)ethyl]hexadecanamide] | 33 | 0.2 | 0.2 | 0.4 | 0.5 |
| CCCCCCCCCCCCCCCCCCOCC(O)CN(CCO)CC(O)COCCCCCCCCCC (centres unmarked) [Compound II3] | 11 | 0.5 | 0.8 | 1.1 | – |
| CCCCCCCCCCCCCCCCOCC(O)CN(CC(O)CO)C(=O)CCCCCCCCCCCCCCC (centres unmarked) [Compound Ia10, N-(3-hexadecyloxy-2-hydroxypropyl)-N-2,3-dihydroxypropylhexadecanamide] | 22 | 0.1 | 0.3 | 0.6 | – |
| CCCCCCCCCCOCC(O)CN(CCOP(=O)(O)OCCNCCc1ccccc1)C(=O)CCCCCCCCC (centres unmarked) [Compound Ie10] | 11 | 1.0 | 1.2 | 1.8 | – |
| CCCCCCCCCCCCCCCCOCC(O)CN(CCOP(=O)([O-])OCC[N+](C)(C)C)C(=O)CCCCCCCCCCCCCCC (centres unmarked) [Compound Ie7] | – | 0.5 | 0.7 | 1.0 | – |
